ChEMBL document CHEMBL1146990, “Antibacterial activity of (-)-deoxypseudophrynaminol versus its racemate and derivatives” (2006)
Activity calls are given as the source filed them. The calls are words filed in the database; no cut-off is given here.

Columns and labels:
[1] = test system: Staphylococcus aureus; assay: Antibacterial activity against Staphylococcus aureus at 10 ug/ml relative to control; assay type: functional
[2] = test system: Staphylococcus aureus; assay: Antibacterial activity against Staphylococcus aureus at 40 ug/ml relative to control; assay type: functional

Row | Compound | Activity [1] | Activity [2]
1 | CC(C)=CC[C@@]12CCN(C)[C@@H]1Nc1ccccc12 | 50% | 99%
2 | CC(C)=CC[C@@]12CCN(C)[C@@H]1Nc1ccccc12 (racemic) [listing 1 of 2 here] |  | 85%
3 | CC(C)=CC[C@@]12CCN(C)[C@@H]1Nc1ccccc12 (racemic) [listing 2 of 2 here] | inactive | 
4 | COC(=O)N1CC[C@@]2(CC=C(C)C)c3ccccc3N(CC=C(C)C)[C@@H]12 (racemic) | inactive | inactive
5 | CC(C)=CCN1c2ccccc2[C@]2(CC=C(C)C)CCN(C)[C@H]12 (racemic) [(-)-DEBROMOFLUSTRAMINE B] |  | 30%
